Where “and” joins values, the source holds several entries; their conditions need not be identical. Equal values may be shown once.
Assays:
[1] = system: human monocyte-derived macrophages; assay: Cytotoxicity to human monocyte-derived macrophages; assay type: cell-based; conditions: 7 days incubation; GL5 and HT1171 up to 75 μM
Mtb 20SOG = assay type: biochemical, Mycobacterium tuberculosis; conditions: by partition ratios
mycobacterial proteasome = mycobacterial proteasome (Mycobacterium bovis, UniProt A1KKF3); assay: cell-based; set-up: species or system Mycobacterium bovis var. BCG; conditions: for inhibition at 50 µM: read-out: inhibition of mycobacterial proteasome activity in intact BCG
Sequence of mycobacterial proteasome (A1KKF3 whole entry, looked up): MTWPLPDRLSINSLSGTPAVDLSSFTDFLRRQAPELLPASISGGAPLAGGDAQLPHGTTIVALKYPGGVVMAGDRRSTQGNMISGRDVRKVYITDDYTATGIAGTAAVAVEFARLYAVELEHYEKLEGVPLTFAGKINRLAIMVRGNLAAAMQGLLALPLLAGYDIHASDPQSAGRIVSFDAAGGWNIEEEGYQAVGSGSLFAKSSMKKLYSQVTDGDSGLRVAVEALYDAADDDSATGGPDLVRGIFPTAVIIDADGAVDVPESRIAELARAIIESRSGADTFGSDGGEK

BCG = assay type: cell-based, Mycobacterium bovis var. BCG
Mtb Erdman = assay type: cell-based, Mycobacterium tuberculosis; conditions: non-replicating Mtb
Mtb20SOG = Mtb20SOG (Mycobacterium tuberculosis, UniProt P9WHT9); assay: High throughput screen, Mtb20SOG hydrolysis of Suc-LLVY-AMC; assay type: biochemical; conditions: 33 μM test compounds
Sequence of Mtb20SOG (P9WHT9 whole entry, looked up): as the sequence (A1KKF3 whole entry, looked up) above

Row | Structure (SMILES) | toxicity to human macrophages [1] | fold more effective against Mtb proteasomes than human proteasomes (Mtb 20SOG) [fold] | reduction of proteasome activity in intact BCG (mycobacterial proteasome) | inhibition at 50 µM (mycobacterial proteasome) [%] | killing of BCG (in words) (BCG) | Mtb killed over 4 days in synergy with nitric oxide (Mtb Erdman; dose-dependent, 50 μM DETA-NO) | activity in screen against Mtb20SOG (Mtb20SOG) | mycobactericidal activity compared with GL5 and HT1171 (in words) (Mtb Erdman; DETA-NO, 4 days)
1 | CSc1sc(C)cc1-c1nsc(=O)o1 [GL5, 5-(5-methyl-2-(methylthio)thiophen-3-yl)-1,3,4-oxathiazol-2-one] | no apparent toxicity | > 1000 | > 80% and ~ 50% | ~90 | killed BCG alone and in synergy with sub-bacteriostatic fluxes of nitric oxide | 1.5-2.5 log10 | – | –
2 | Cc1cc(-c2nsc(=O)o2)c(S(C)(=O)=O)s1 [GL6, 5-(5-methyl-2-(methylsulfonyl)thiophen-3-yl)-1,3,4-oxathiazol-2-one] | – | – | – | – | – | – | inactive | –
3 | CC(C)C[C@H](NC(=O)[C@H](Cc1ccccc1)NC(=O)c1cnccn1)B(O)O [bortezomib, reference compound] | toxic | – | – | 52 | – | – | – | less mycobactericidal
